Data as given in patent US20250360117A1, “KCNT1 INHIBITORS COMPRISING AN ISOXAZOLE OR OXADIAZOLE CORE AND METHODS OF USE” (PRAXIS PRECISION MEDICINES, INC., priority 2022, published 2025).
Values joined by “and” are separate entries in the source; they are usually repeats but may differ in a detail not shown here. Equal entries are not always repeated. “Also recorded” adds a separate entry of the source.

Assays:
[1] = tested on: Kcnt1^R455H/+ heterozygous mice; assay: PTZ-induced seizures in Kcnt1^R455H/+ heterozygous mice; assay type: in vivo, mouse; conditions: for Convulsive seizure latency: hazard ratio (drug/vehicle): log rank test; for Latency (s) to clonic or tonic seizures with loss of posture: individual animals, 1320 s = no seizure observed over the experiment, 75 mg/kg
Description: Kcnt1^R455H/+ heterozygous mice have increased sensitivity to PTZ seizure induction as compared with wild-type littermates. It was determined herein whether a compound of Formula (I-A) delivered prior to PTZ could delay the onset of convulsive seizures. Formula (I-A) (75 mg/kg s.c.) or a vehicle control was administered as a single dose. After a pretreatment period of one or two hours, mice were administered PTZ at a dose of 55 mg/kg for induction of seizures. Seizures were then scored based on behavior (no EEG). The latency to convulsive seizures was compared between groups to determine if the compound can prevent induced seizures.
Animals: Adult Kcnt1^R455H/+ heterozygous C57/B6J mice were used in this example. Mice were approximately 2 months old. No preference was made for male or female animals.
Drug preparation and delivery: A 7.5 mg/mL solution of a compound of Formula (I-A) was prepared on each day of injection in 10% DMSO/10% Solutol/80% deionized water with a volume sufficient for 10-20 animals. After at least 30 minutes of acclimatization to the testing environment, either the drug or vehicle control was delivered to each animal subcutaneously at a dose of 75 mg/kg based on current body weight.
PTZ injection and testing: Kcnt1^R455H/+ mice were tested with PTZ 55 mg/kg IP administered 1 or 2 hours after administration of either the compound of Formula (I-A) 75 mg/kg SC or vehicle control. Mice were then monitored continuously for 30 min by an observer blinded to treatment group. […] Latency to first clonic seizure with loss of posture was recorded and compared using the time to event analysis; log-rank Mantel-Cox in GraphPad Prism, p<0.05 was considered statistically significant. Seizures induced by PTZ were scored using a modified Racine scale, and the latency to convulsive seizures was compared between drug and vehicle groups (log rank test).
Behavior was scored live, and mice were recorded on video for later confirmation. Seizure severity scores were based on a recent report that is specifically designed for mouse PTZ experiments (Van Erum et al., Epilepsy and Behavior 2019 June; 95:51-55). Behavioral seizure scores were as follows: • −1: normal baseline • 0: whisker trembling • 1: behavioral arrest • 2: facial jerking • 3: neck jerks/myoclonus • 4: clonic (sitting) • 5: clonic, tonic-clonic (lying on belly) • 6: clonic, tonic-clonic (lying on side), and wild jumping • 7: tonic extension, possibly leading to respiratory arrest and death.
The time at which mice reached each stage was recorded. It was difficult to reliably ascertain grade 0-2 seizures without the aid of EEG, and there was inconsistency between reviewers for stage 3-5 seizures. As the clearest and most consistent (between examiners) scores were for stage 6-7, only these were used for reporting and analysis, although earlier scores were also recorded and saved. Latency to stage 6 or above seizures were plotted as survival curves, and differences were assessed with a long rank test. Scoring was cut off after 22 minutes post-PTZ administration (1320 seconds).

[2] = tested on: Kcnt1^R455H/+ heterozygous mice; assay: Spontaneous interictal epileptiform discharges (spikes) on EEG; assay type: in vivo, mouse; conditions: 75 mg/kg s.c.
Description: Infrequent spontaneous seizures also occur in some Kcnt1^R455H/+ heterozygous mice. This experiment sought to determine if administration of a compound of Formula (I-A) could reduce interictal spikes.
Animals: Adult Kcnt1^R455H/+ heterozygous mice on a C57/B6J background were used in all experiments disclosed in this example. Mice were approximately 2-3 months old. No preference was made for male or female animals. This strain is almost always stillborn in the homozygous condition. Seizures occur in some but not all heterozygotes, and interictal discharges occurs reliably.
Implantation of EEG electrodes: Mice were anesthetized with inhaled isoflurane 3-4% induction followed by approximately 1-1.5% maintenance titrated to effect. The head was fixed in a Kopf stereotactic apparatus, and the scalp was sterilized with povidone-iodine. The temperature was regulated to 37 degrees Celsius with a heating pad and rectal probe. Pre-emptive analgesia was provided with subgaleal bupivacaine 0.1% administered to form a wheal on the scalp, no more than 0.08 mL/10 g body weight. A linear midline scalp incision was made from behind the eyes to expose skull markers. Four holes were drilled (#60 drill bit): two anterior to the coronal suture (for left and right active recording), and two ⅔ of the way from the frontal to lambdoid suture (for reference and ground), […]. Screw electrodes were inserted in each burr hole (size W00-96×1.6 mm soldered to 15 mm insulated wire) and connected to a plastic pedestal (PlasticsOne E363). This assembly was then secured with dental cement. Meloxicam 5 mg/kg IP was given for post-operative analgesia.
Drug preparation for mice under EEG: A 7.5 mg/mL solution of a compound of Formula (I-A) was prepared on the day of injection in 10% DMSO/10% Solutol/80% deionized water. After at least 72 hours of baseline recording, the compound of Formula (I-A) was delivered subcutaneously at a dose of 75 mg/kg based on pre-surgical body weight.
EEG recording and analysis: Mice were held in a heated cage for at least 24 hours to recover before connection to the EEG recording system. Two-channel EEG with video was recorded using a Compumedics Grael EEG amplifier at 512 Hz sampling rate. The entire EEG was reviewed manually, and all interictal discharges and seizures were identified and marked. Video recordings were used to confirm epileptiform activity. Mice that had adequate recording quality and interictal spikes were selected for drug delivery. […] EEG recordings were manually scored by a reviewer blinded to treatment group. […]
EEG data were collected and reviewed in Compumedics Profusion. […] Average interictal discharge rates were determined in the baseline period and in the first, second, and third post-injection days (FIG. 3A). […]

[3] = tested on: Cortical neurons from Kcnt1^R455H heterozygous mice; assay: Neuronal electrophysiology (current clamp and voltage clamp); assay type: cell-based, mouse; conditions: 10 μM, 20 minutes, vs vehicle control
Description: Cortical neurons from Kcnt1^R455H heterozygous mice were cultured and treated for 20 minutes with 10 μM of a compound of Formula (I-A) in DMSO. Presumed glutamatergic neurons were identified based on pyramidal morphology. Presumed GABAergic neurons were identified based on spindle morphology (and fast spiking pattern in the control recordings). Current clamp and voltage clamp recordings were performed on an Axon Multiclamp 700B amplifier. It was observed that pyramidal cells treated with vehicle control had many action potentials and mild adaptation in response to an inward current and large outward currents with depolarization.

Kcnt1^R455H/R455H pups = assay: Survival of R455H homozygous pups after dosing of pregnant dams; assay type: in vivo, mouse; conditions: for Age survived before death or euthanasia: individual, dams 75 mg/kg s.c.
Description: Quraishi et. al. PMID 32081855. Without wishing to be bound by theory, it is thought that inhibition of mutant channel activity by KCNT1 inhibitors, such as the compound of Formula (I-A), during gestation might aid the survival of homozygous pups. Timed matings were performed on heterozygote breeding pairs, and a compound of Formula (I-A) was administered to the pregnant dams. No dosing of the live pups with Formula (I-A) was performed. All surviving and stillborn offspring that could be recovered were then genotyped, and brains were dissected and sent for measurement of Formula (I-A).
Breeding and dosing: Timed matings were performed on three KCNT1^R455H+×KCNT1^R455H/+ breeding pairs. Maternal injections of Formula (I-A) (75 mg/kg s.c.) were performed for four pregnant dams from three Kcnt1^R455H/+×Kcnt1^R455H/+ breeding pairs and one Kcnt1^+/+×Kcnt1^+/+ breeding pair. Starting approximately 13 days after the mating plug was identified, pregnant dams were administered 75 mg/kg Formula (I-A) (s.c.) every 3 days (as permitted) through the time of delivery. There was some variability in the days of administration as noted. Offspring were observed daily after delivery. The records of litters and treatment dates are shown below in Table 3. In round one, two doses of Formula (I-A) were delivered to each of the two dams from the Kcnt1^R455H/+×Kcnt1^R455H/+ crosses. […] In round two, three doses of Formula (I-A) were delivered to one dam from a Kcnt1^R455H/+×Kcnt1^R455H/+ cross.
(§1) Whole brains were collected from all pups at 14 days after birth or at the time they are found deceased. Tails were genotyped through an automated system (Transnetyx) which was previously validated against PCR-based RFLP and sequencing. The whole brains were analyzed to determine brain exposure of Formula (I-A).

[4] = Brain exposure in pups after maternal dosing (LC-MS/MS); assay type: in vivo, mouse; conditions: KCNT1^R455H/R455H pups, individual, brain collected when found deceased; maternal 75 mg/kg s.c.
Description: as §1
Bioanalysis of Brain Samples: Brain tissue was homogenized in 10:1 (v/wt) ratio using 10 mM PBS in methanol (2:1, v/v). 20 μL of samples were then precipitated with 200 μL IS solution (100 ng/mL Labetalol & 100 ng/mL Tolbutamide in ACN). The mixture was vortex-mixed and centrifuged at 4000 rpm for 15 min, 4° C. An aliquot of 100 μL supernatant was transferred to a sample plate and mixed with 100 μL water. The plate was shaken at 800 rpm for 10 minutes. 1 μL supernatant was then injected for LC-MS/MS analysis. A 1-3000 ng/ml PRX-0002904 calibration curve was prepared in mouse brain homogenate. Ultra-performance liquid chromatography (UPLC) parameters conditions are provided in Table 5 below, and the results are shown in Table 6 below.

Q: Which “animals with PTZ-induced convulsive seizures” value ([1]; 75 mg/kg s.c., 1 hour pretreatment before PTZ 55 mg/kg IP, 1/16 animals, vehicle 6/15 (40%)) does the source give for `C[C@H](NC(=O)c1cc(C(F)(F)F)nn1C)c1nc(-c2ccnc(C(F)(F)F)c2)no1` [Formula (I-A)] here?
A: 6%

Q: And the “Convulsive seizure latency: hazard ratio (drug/vehicle)” value ([1]; 75 mg/kg s.c., 1 hour pretreatment before PTZ 55 mg/kg IP)?
A: 0.13 (95% CI 0.03-0.58)

Q: And the “Convulsive seizure latency: hazard ratio (drug/vehicle)” value ([1]; 75 mg/kg s.c., 2 hours pretreatment before PTZ 55 mg/kg IP)?
A: 0.056 (95% CI 0.019-0.161)

Q: What about the “mice with a seizure that reached stage 6-7” value ([1]; 75 mg/kg s.c., 2 hours prior to PTZ 55 mg/kg IP, 1 out of 20 mice, vehicle 13 out of 20 (65%)) of the same compound?
A: 5%

Q: And the “effect on PTZ-induced seizures (in words)” value ([1]; 75 mg/kg s.c., compared to vehicle-treated mice)?
A: anticonvulsant against PTZ-induced seizures; also recorded: significantly increased the latency to and reduced the incidence of PTZ-induced seizures

Q: What about the “Latency (s) to clonic or tonic seizures with loss of posture” value ([1]; 75 mg/kg s.c. 1 hour prior to PTZ) of the same compound?
A: 1320 s (14×) and 190 s and 647 s

Q: And the “Latency (s) to clonic or tonic seizures with loss of posture” value ([1]; 75 mg/kg s.c. 2 hours prior to PTZ)?
A: 1320 s (19×) and 294 s

Q: And the “interictal spike rate, first 24 hours after dosing vs preceding 72-hour baseline” value ([2]; N=12, p=0.005)?
A: marked per-animal reduction; also recorded: reduced

Q: What about the “interictal spike rate, second day after dosing vs baseline” value ([2]; N=12, p=0.042) of the same compound?
A: reduction persisted

Q: What about the “interictal spike rate reduction, third day after dosing vs baseline” value ([2]; N=12, p>0.999) of the same compound?
A: no longer evident

Q: What about the “mice with a decrease in spike rates from baseline to Day 1” value ([2]; baseline-adjusted spike rates) of the same compound?
A: 11 out of 12

Q: What about the “action potential firing and outward currents, pyramidal cells (presumed glutamatergic)” value [3] of the same compound?
A: less sustained action potential firing and diminished outward currents

Q: And the “spike rates and outward currents, presumed GABAergic neurons” value [3]?
A: markedly reduced spike rates and outward currents

Q: And the “Age survived before death or euthanasia” value (Kcnt1^R455H/R455H pups; Kcnt1^+/+ pups, 2 or 3 doses, brains collected at 14 days)?
A: 14 days

Q: What about the “Age survived before death or euthanasia” value (Kcnt1^R455H/R455H pups; Kcnt1^R455H/+ pups, 2 or 3 doses, brains collected at 14 days) of the same compound?
A: 14 days

Q: And the “Age survived before death or euthanasia” value (Kcnt1^R455H/R455H pups; Kcnt1^R455H/R455H pups, 2 doses (litters 1, 2) or 3 doses (litter 3), pups not dosed, dams given 2 doses)?
A: 1 days (3×) and 2 days

Q: And the “Age survived before death or euthanasia” value (Kcnt1^R455H/R455H pups; Kcnt1^R455H/R455H pups, 2 doses (litters 1, 2) or 3 doses (litter 3), pups not dosed, dams given 3 doses)?
A: 4 days

Q: What about the “Kcnt1^R455H/R455H pups that survived multiple days” value (Kcnt1^R455H/R455H pups; maternal dosing 75 mg/kg s.c.) of the same compound?
A: Two of five

Q: And the “survival of Kcnt1^R455H/R455H pups born alive (in words)” value (Kcnt1^R455H/R455H pups; round one: two doses 75 mg/kg s.c. to each of two dams, four pups born alive)?
A: three surviving for one day and one surviving two days

Q: What about the “survival of Kcnt1^R455H/R455H pup (in words)” value (Kcnt1^R455H/R455H pups; round two: three doses 75 mg/kg s.c. to one dam, one pup) of the same compound?
A: survived for four days

Q: What about the “Brain Homogenate Concentration” value [4] of the same compound?
A: 15.2 ng/mL and 133 ng/mL and 109 ng/mL and 16.9 ng/mL

Q: What about the “Brain Homogenate Concentration (ng/mL)” value [4] of the same compound?
A: BLQ

Q: What about the “Final brain concentration” value [4] of the same compound?
A: 167 ng/g and 1458 ng/g and 1200 ng/g and 354 ng/g

Q: And the “Final brain concentration (ng/g)” value [4]?
A: BLQ
